In the NIST ThermoML archive (doi:10.1016/j.jct.2013.02.006) one finds activity coefficient data, which are given here for 48 compounds.

Structures are written as SMILES. ± gives the expanded uncertainty stated by the source.

The data set is described as follows: activity coefficient (dimensionless); of the first substance listed, at infinite dilution; xn = mol fraction of the nth substance listed. Particulars: 101 kPa, Liquid, Chromatography, x1 = 0.

Consider `CCCCCCC` [heptane] + CN1CCCC1=O, for which the activity coefficient is, setting by setting: (333.2 K) 11.4 ± 0.78; (348.2 K) 10.7 ± 0.73; (363.2 K) 10 ± 0.68.

Consider `CC(C)O` [propan-2-ol] + O=CN1CCOCC1, for which the activity coefficient was 1.46 ± 0.1 (333.2 K), 1.29 ± 0.083 (348.2 K) and 0.933 ± 0.059 (363.2 K).

Turning to `CCCCCCCCC` [nonane] + CN1CCCC1=O, the activity coefficient runs as follows: (333.2 K) 16.7 ± 1.1; (348.2 K) 14.9 ± 1; (363.2 K) 12 ± 0.82.

Take `CCCCCCCC` [octane] + O=CN1CCOCC1: the activity coefficient was 39.5 ± 2.7 (333.2 K), 34.3 ± 2.4 (348.2 K) and 30.6 ± 2.1 (363.2 K).

`CCCO` [propan-1-ol] + O=CN1CCOCC1: the activity coefficient runs as follows: (333.2 K) 1.25 ± 0.08; (348.2 K) 1.15 ± 0.073; (363.2 K) 0.913 ± 0.058.

On to `C=CCCCCCC` [oct-1-ene] + O=CN1CCOCC1, for which the activity coefficient stood at 20.5 ± 1.4 (333.2 K), 18.4 ± 1.3 (348.2 K) and 16.7 ± 1.1 (363.2 K).

Regarding `C#CCCCCCC` [1-octyne] + O=CN1CCOCC1, the activity coefficient was determined as 5.15 ± 0.35 (333.2 K), 4.9 ± 0.3 (348.2 K) and 4.65 ± 0.32 (363.2 K).

Consider `CCCCCCCCC` [nonane] + O=CN1CCOCC1, for which the activity coefficient is 50.2 ± 3.4 (333.2 K), 43.5 ± 3 (348.2 K) and 38.2 ± 2.6 (363.2 K).

`C#CCCC` [1-pentyne] + O=CN1CCOCC1: the activity coefficient runs as follows: (333.2 K) 2.56 ± 0.17; (348.2 K) 2.58 ± 0.18; (363.2 K) 2.38 ± 0.16.

Consider `CCCCCCC` [heptane] + O=CN1CCOCC1, for which the activity coefficient was found to be 31.3 ± 2.1 (333.2 K), 27.5 ± 1.9 (348.2 K) and 25.9 ± 1.8 (363.2 K).

On to `C=CCCC` [1-pentene] + CN1CCCC1=O, for which the activity coefficient reads like this: (333.2 K) 4.75 ± 0.32; (348.2 K) 4.84 ± 0.33; (363.2 K) 4.99 ± 0.34.

Regarding `C1CCCCCCC1` [cyclooctane] + O=CN1CCOCC1, the activity coefficient by setting is: (333.2 K) 17.7 ± 1.2; (348.2 K) 14.5 ± 0.99; (363.2 K) 11.9 ± 0.81.

For the compound `CCO` [ethanol] + O=CN1CCOCC1, the activity coefficient reads like this: (333.2 K) 1.2 ± 0.077; (348.2 K) 1.14 ± 0.073; (363.2 K) 0.914 ± 0.058.

With `CCCCCC` [hexane] + O=CN1CCOCC1, the activity coefficient came to 24.6 ± 1.7 (333.2 K), 21.5 ± 1.5 (348.2 K) and 19.6 ± 1.3 (363.2 K).

Consider `C=CCCCCC` [1-heptene] + CN1CCCC1=O, for which the activity coefficient (333.2 K) was determined as 6.37 ± 0.43, the activity coefficient (348.2 K) stood at 6.24 ± 0.43 and the activity coefficient (363.2 K) was found to be 6.28 ± 0.43.

As for `CCc1ccccc1` [ethylbenzene] + CN1CCCC1=O, the activity coefficient stood at 1.73 ± 0.12 (333.2 K), 1.83 ± 0.12 (348.2 K) and 1.61 ± 0.11 (363.2 K).

Regarding `CO` [methanol] + CN1CCCC1=O, the activity coefficient is 0.482 ± 0.037 (333.2 K), 0.556 ± 0.04 (348.2 K) and 0.511 ± 0.038 (363.2 K).

Regarding `CCc1ccccc1` [ethylbenzene] + O=CN1CCOCC1, the activity coefficient stood at 3.46 ± 0.24 (333.2 K), 3.41 ± 0.23 (348.2 K) and 3.21 ± 0.22 (363.2 K).

Consider `C1CCCC1` [cyclopentane] + O=CN1CCOCC1, for which the activity coefficient is, setting by setting: (333.2 K) 10.2 ± 0.7; (348.2 K) 8.75 ± 0.6; (363.2 K) 7.59 ± 0.52.

Regarding `C1CCCC1` [cyclopentane] + CN1CCCC1=O, the activity coefficient runs as follows: (333.2 K) 5.16 ± 0.35; (348.2 K) 4.68 ± 0.32; (363.2 K) 4.55 ± 0.31.

For `c1ccccc1` [benzene] + CN1CCCC1=O, the activity coefficient (333.2 K) came out at 1.1 ± 0.07, the activity coefficient (348.2 K) came to 1.14 ± 0.07 and the activity coefficient (363.2 K) was 1.1 ± 0.07.

`C#CCCCCC` [1-heptyne] + O=CN1CCOCC1: the activity coefficient is 3.85 ± 0.26 (333.2 K), 3.83 ± 0.26 (348.2 K) and 3.68 ± 0.25 (363.2 K).

With `C=CCCCC` [hex-1-ene] + CN1CCCC1=O, the activity coefficient turned out to be 5.51 ± 0.38 (333.2 K), 5.44 ± 0.37 (348.2 K) and 5.57 ± 0.38 (363.2 K).

Consider `CCCCCC` [hexane] + CN1CCCC1=O, for which the activity coefficient by setting is: (333.2 K) 9.51 ± 0.65; (348.2 K) 9.19 ± 0.63; (363.2 K) 8.51 ± 0.58.

For `C1CCCCCCC1` [cyclooctane] + CN1CCCC1=O, the activity coefficient (333.2 K) was 8.23 ± 0.56, the activity coefficient (348.2 K) is 7.62 ± 0.52 and the activity coefficient (363.2 K) stood at 6.06 ± 0.41.

As to `C#CCCCC` [1-hexyne] + O=CN1CCOCC1, the activity coefficient runs as follows: (333.2 K) 3.25 ± 0.22; (348.2 K) 3.19 ± 0.22; (363.2 K) 2.78 ± 0.19.

Turning to `C#CCCCCC` [1-heptyne] + CN1CCCC1=O, the activity coefficient worked out at 1.72 ± 0.12 (333.2 K), 1.79 ± 0.12 (348.2 K) and 1.92 ± 0.13 (363.2 K).

As for `CCO` [ethanol] + CN1CCCC1=O, the activity coefficient runs as follows: (333.2 K) 0.606 ± 0.042; (348.2 K) 0.605 ± 0.042; (363.2 K) 0.618 ± 0.043.

For `CO` [methanol] + O=CN1CCOCC1, the activity coefficient by setting is: (333.2 K) 0.852 ± 0.055; (348.2 K) 0.847 ± 0.054; (363.2 K) 0.706 ± 0.047.

In the case of `C=CCCC` [1-pentene] + O=CN1CCOCC1, the activity coefficient stood at 9.97 ± 0.68 (333.2 K), 9.43 ± 0.64 (348.2 K) and 8.61 ± 0.59 (363.2 K).

As to `C1CCCCCC1` [cycloheptane] + O=CN1CCOCC1, the activity coefficient by setting is: (333.2 K) 15.4 ± 1.1; (348.2 K) 12.7 ± 0.87; (363.2 K) 10.5 ± 0.71.

For the compound `C#CCCC` [1-pentyne] + CN1CCCC1=O, the activity coefficient is, setting by setting: (333.2 K) 1.27 ± 0.08; (348.2 K) 1.41 ± 0.09; (363.2 K) 1.63 ± 0.11.

As to `C1CCCCCC1` [cycloheptane] + CN1CCCC1=O, the activity coefficient reads like this: (333.2 K) 7.51 ± 0.51; (348.2 K) 6.71 ± 0.46; (363.2 K) 6.8 ± 0.46.

Turning to `C=CCCCCC` [1-heptene] + O=CN1CCOCC1, the activity coefficient is, setting by setting: (333.2 K) 16 ± 1.1; (348.2 K) 14.6 ± 1; (363.2 K) 13.3 ± 0.91.

For `CCCCC` [pentane] + CN1CCCC1=O, the activity coefficient (333.2 K) was found to be 8.32 ± 0.57, the activity coefficient (348.2 K) was 8.11 ± 0.55 and the activity coefficient (363.2 K) was 7.54 ± 0.51.

As for `C=CCCCCCC` [oct-1-ene] + CN1CCCC1=O, the activity coefficient amounted to 8.39 ± 0.57 (333.2 K), 7.6 ± 0.52 (348.2 K) and 6.7 ± 0.46 (363.2 K).

As for `CCCCC` [pentane] + O=CN1CCOCC1, the activity coefficient (333.2 K) is 19.2 ± 1.3, the activity coefficient (348.2 K) amounted to 17.3 ± 1.2 and the activity coefficient (363.2 K) was 15.3 ± 1.

Turning to `Cc1ccccc1` [toluene] + CN1CCCC1=O, the activity coefficient (333.2 K) came to 1.39 ± 0.09, the activity coefficient (348.2 K) is 1.35 ± 0.09 and the activity coefficient (363.2 K) turned out to be 1.42 ± 0.09.

Turning to `CC(C)O` [propan-2-ol] + CN1CCCC1=O, the activity coefficient came out at 0.627 ± 0.043 (333.2 K), 0.639 ± 0.044 (348.2 K) and 0.632 ± 0.044 (363.2 K).

For the compound `C1CCCCC1` [cyclohexane] + O=CN1CCOCC1, the activity coefficient by setting is: (333.2 K) 13.8 ± 0.94; (348.2 K) 12.3 ± 0.84; (363.2 K) 11 ± 1.

Consider `c1ccccc1` [benzene] + O=CN1CCOCC1, for which the activity coefficient runs as follows: (333.2 K) 1.91 ± 0.13; (348.2 K) 1.82 ± 0.12; (363.2 K) 1.81 ± 0.12.

For the compound `C#CCCCCCC` [1-octyne] + CN1CCCC1=O, the activity coefficient (333.2 K) is 2.07 ± 0.14, the activity coefficient (348.2 K) is 2.15 ± 0.15 and the activity coefficient (363.2 K) worked out at 2.16 ± 0.15.

In the case of `C#CCCCC` [1-hexyne] + CN1CCCC1=O, the activity coefficient (333.2 K) was 1.47 ± 0.1, the activity coefficient (348.2 K) amounted to 1.57 ± 0.1 and the activity coefficient (363.2 K) worked out at 1.77 ± 0.12.

`CCCO` [propan-1-ol] + CN1CCCC1=O: the activity coefficient by setting is: (333.2 K) 0.537 ± 0.039; (348.2 K) 0.552 ± 0.04; (363.2 K) 0.548 ± 0.04.

For `C=CCCCC` [hex-1-ene] + O=CN1CCOCC1, the activity coefficient by setting is: (333.2 K) 13.5 ± 0.92; (348.2 K) 11.6 ± 0.79; (363.2 K) 10.5 ± 0.72.

Consider `Cc1ccccc1` [toluene] + O=CN1CCOCC1, for which the activity coefficient is, setting by setting: (333.2 K) 2.71 ± 0.18; (348.2 K) 4.04 ± 1.5; (363.2 K) 2.55 ± 0.17.

On to `CCCCCCCC` [octane] + CN1CCCC1=O, for which the activity coefficient by setting is: (333.2 K) 13.8 ± 0.94; (348.2 K) 13.2 ± 0.9; (363.2 K) 10.6 ± 0.72.

For the compound `C1CCCCC1` [cyclohexane] + CN1CCCC1=O, the activity coefficient came out at 6.32 ± 0.43 (333.2 K), 5.83 ± 0.4 (348.2 K) and 5.41 ± 0.37 (363.2 K).
